Series [1] concerns HCV genotype 1b replicon in Huh-7-derived cell line (Zluc). Nature of the series: HCV Replicon Assay (luciferase reporter). The series is classed as cell-based. The following applies: Hepatitis C virus; Zluc cells, 72 hours of incubation, luciferase readout. The procedure:
Huh-7-derived cell line (Zluc) that harbors an HCV genotype 1b replicon and a luciferase reporter gene was grown in Dulbecco's Modified Eagle Medium (DMEM) supplemented with 10% fetal bovine serum, 2 mM GlutaMAX, 1% MEM nonessential amino acids, 100 IU/mL penicillin, 100 μg/mL streptomycin, and 0.5 mg/mL Geneticin® (G418). For dose response testing the cells were seeded in 96-well plates at 7.5×10^3 cells per well in a volume of 50 μL, and incubated at 37° C./5% CO2. Drug solutions were made up freshly in Huh-7 media as 2× stocks. Ten additional 5-fold dilutions were prepared from these stocks in DMEM without G418. At least three hours after Zluc cells were seeded, drug treatment was initiated by adding 50 μL of drug dilutions to the plates in duplicate. Final concentrations of drug ranged from 100 μM to 0.0000512 μM. Cells were then incubated at 37° C./5% CO2. Alternatively, compounds were tested at two concentrations (1 μM and 10 μM). […] After 72 hours of incubation, the inhibition of HCV replication was measured by quantification of photons emitted after mono-oxygenation of 5′-fluoroluciferin to oxyfluoroluciferin by firefly luciferase. For this, media was removed from the plates via gentle tapping. Fifty microliters of ONE-glo luciferase assay reagent was added to each well. The plates were shaken gently for 3 min at room temperature and luminescence was measured on a Victor^3 V 1420 multilabel counter (Perkin Elmer) with a 1 second read time using a 700 nm cut-off filter. The EC50 values were calculated from dose response curves from the resulting best-fit equations determined by Microsoft Excel and XLfit 4.1 software. When screening at two fixed concentrations, the results were expressed as % inhibition at 1 μM and 10 μM.
In general terms: In antiviral work, replicon cells carry a viral genome segment that copies itself.

Series [2] in a line: Cytotoxicity evaluation, CellTiter-Blue Cell Viability Assay. The series is classed as cell-based. The settings on record: human, Zluc cells (HCV replicon). The procedure:
For cytotoxicity evaluation, Zluc cells were treated with compound as described herein, and cell viability was monitored using the CellTiter-Blue Cell Viability Assay (Promega) by adding 20 μL of the assay solution to each well. The plates were then incubated at 37° C./5% CO2 for at least 3 hours. Fluorescence was detected in plates using excitation and emission wavelengths of 560 and 590 nm, respectively, in a Victor^3 V 1420 multilabel counter (Perkin Elmer) and CC50 values were determined using Microsoft Excel and XLfit 4.1 software.

The target of series [3] is T1, wild-type HCV genotype 1b NS5B protein (recombinant HCV polymerase) (Hepatitis C virus genotype 1b, UniProt Q9WMX2).
T1 construct: HCV genotype 1b NS5B protein were used to generate recombinant HCV polymerases (with a deletion of the 21 carboxy terminal amino acids); made in house
Nature of the series: HCV Polymerase Enzyme Assay, wild-type. In kind it is biochemical. The source says: (§1) Test compounds in the form of nucleoside triphosphates were examined for inhibitory activity against purified HCV polymerase in a standard assay. Bacterial expression constructs encoding the approximately 65 kDa HCV genotype 1b NS5B protein were used to generate recombinant HCV polymerases (with a deletion of the 21 carboxy terminal amino acids). Both the wild-type genotype 1b protein and protein containing the S282T mutation were expressed and purified for use in the enzymatic activity assay.
(§2) The enzymatic activity assay measured the inhibitory effect of increasing concentrations of test compound on the incorporation of α-[^33P]-labeled nucleotide into trichloroacetic acid-precipitable material. Recombinant polymerase and synthetic RNA template were combined in reaction buffer containing ribonucleoside triphosphates, α-[^33P]-labeled nucleotide and eight concentrations of test compound in three-fold dilutions. Reactions were incubated for two hours at 30° C.
(§3) Reactions were terminated by the addition of ice-cold trichloroacetic acid and sodium pyrophosphate to promote precipitation of newly-synthesized ribonucleic acid. Precipitable material from the reactions was collected by filtration onto 96-well filter plates, washed extensively with water, and quantified by liquid scintillation.
(§4) The inhibitory activity of test compounds was determined by fitting results to dose-response curves using XLfit software.

Series [4] deals with T2, HCV genotype 1b NS5B protein containing the S282T mutation (Hepatitis C virus genotype 1b, UniProt Q9WMX2, S2701T).
T2 construct: HCV genotype 1b NS5B protein were used to generate recombinant HCV polymerases (with a deletion of the 21 carboxy terminal amino acids); made in house
Kind of series: HCV Polymerase Enzyme Assay, S282T mutant. The series is classed as biochemical.
Source text: as §1, §2, §3, §4

Among the data in patent publication US10683321B2, “4′-or nucleosides for the treatment of HCV” (IDENIX PHARMACEUTICALS LLC, priority 2013, dated 2020) are EC50, CC50 and IC50 values, retold here.

`CO[C@]1(CO)O[C@@H](n2ccc(=O)[nH]c2=O)[C@H](O)[C@@H]1O` [Compound 2a]: the EC50 (as a rule, the concentration at which the effect is half-maximal) in series [1] is over 10 µM. In series [2], the CC50 (usually the concentration giving 50% cytotoxicity) at 72 h was over 50 µM.

With `CO[C@]1(COP(=O)(O)OP(=O)(O)OP(=O)(O)O)O[C@@H](n2ccc(=O)[nH]c2=O)[C@H](F)[C@@H]1O` [Compound 9b], in series [3], the IC50 (usually the concentration needed to halve the response being measured) was in the range of 1 to 10 µM.

Take `CO[C@]1(CO)O[C@@H](n2ccc(N)nc2=O)[C@H](O)[C@@H]1O` [Compound 5a2]: the EC50 in series [1] is over 10 µM. The compound further gave a CC50 at 72 h in series [2] of over 50 µM.

As for `CO[C@]1(COP(=O)(O)O)O[C@@H](n2ccc(=O)[nH]c2=O)[C@H](O)[C@@H]1O` [Compound 18a], the IC50 in series [3] is over 10 µM.

On to `CO[C@]1(COP(=O)(O)OP(=O)(O)OP(=O)(O)O)O[C@@H](n2cnc3c(=O)[nH]c(N)nc32)[C@H](F)[C@@H]1O` [Compound 222], for which the IC50 in series [3] was under 0.25 µM; in series [4], 0.25 to 1 µM.

Take `CO[C@]1(COP(=O)(N[C@H](C)C(=O)OC(C)C)Oc2ccccc2)O[C@@H](n2ccc(N)nc2=O)[C@H](O)[C@@H]1O` (stereo partly drawn) [Compound 13a]: in series [1], the EC50 is over 10 µM. Further, in series [2], the CC50 at 72 h was over 50 µM.

For the compound `CO[C@@]1(COP(=O)(O)OP(=O)(O)OP(=O)(O)O)C[C@@H](O)[C@H](n2ccc(=O)[nH]c2=O)O1` [Compound 9d], in series [3], the IC50 lay within 1 to 10 µM.

Turning to `CO[C@@]1(CO)C[C@@H](O)[C@H](n2ccc(=O)[nH]c2=O)O1` [Compound 2d], the EC50 in series [1] is over 10 µM. The compound also returned a CC50 at 72 h in series [2] of over 50 µM.

Regarding `CO[C@H]1[C@H](n2ccc(=O)[nH]c2=O)O[C@@](COP(=O)(O)OP(=O)(O)OP(=O)(O)O)(OC)[C@H]1O` [Compound 224], the half-maximal inhibitory concentration (IC50) in series [3] was over 10 µM.

For the compound `CO[C@]1(COP(=O)(O)OP(=O)(O)OP(=O)(O)O)O[C@@H](n2ccc(N)nc2=O)[C@H](O)[C@@H]1O` [Compound 9f], the IC50 in series [3] was under 0.25 µM; in series [4], 0.25 to 1 µM.

For the compound `C#CCO[C@]1(CO)O[C@@H](n2ccc(=O)[nH]c2=O)[C@H](O)[C@@H]1O` [Compound 8a], the 50% effective concentration (EC50) in series [1] is over 10 µM. Moreover, the CC50 at 72 h in series [2] is over 50 µM.

As for `CO[C@]1(CO)O[C@@H](n2ccc(N)nc2=O)[C@H](O)[C@@H]1F` [Compound 5c], the half-maximal effective concentration (EC50) in series [1] is over 10 µM. The half-maximal cytotoxic concentration (CC50) at 72 h in series [2] was over 50 µM.

Consider `CO[C@H]1[C@H](n2ccc(=O)[nH]c2=O)O[C@@](CO)(OC)[C@H]1O` [Compound 24], for which the EC50 in series [1] is over 10 µM. For the same compound, the CC50 at 72 h in series [2] is over 50 µM.

As for `CO[C@]1(COP(=O)(O)OP(=O)(O)OP(=O)(O)O)O[C@@H](n2ccc(=O)[nH]c2=O)[C@H](O)[C@@H]1F` [Compound 9c], in series [3], the IC50 was 0.25 to 1 µM.

On to `CO[C@]1(COP(=O)(O)OP(=O)(O)OP(=O)(O)O)O[C@@H](n2ccc(N)nc2=O)[C@H](O)[C@@H]1F` [Compound 9g], for which the IC50 in series [3] and in series [4] was 0.25 to 1 µM in each case.

Consider `CO[C@]1(CO)O[C@@H](n2ccc(=O)[nH]c2=O)[C@H](N=[N+]=[N-])[C@@H]1O` [Compound 23], for which the EC50 in series [1] is over 10 µM. In series [2], this compound yielded a CC50 at 72 h of over 50 µM.

As to `CO[C@]1(CO)O[C@@H](n2ccc(=O)[nH]c2=O)[C@H](O)[C@@H]1N=[N+]=[N-]` [Compound 2e], the 50% effective concentration (EC50) in series [1] was over 10 µM. The compound further showed a CC50 at 72 h in series [2] of over 50 µM.

On to `CO[C@]1(CO)O[C@@H](n2cnc3c(=O)[nH]c(N)nc32)[C@H](N=[N+]=[N-])[C@@H]1O` [Compound 21], for which the EC50 in series [1] was over 10 µM. In series [2], this compound showed a CC50 at 72 h of over 50 µM.

As to `CO[C@]1(COP(=O)(N[C@H](C)C(=O)OC(C)C)Oc2ccccc2)O[C@@H](n2ccc(=O)[nH]c2=O)[C@H](N=[N+]=[N-])[C@@H]1O` (stereo partly drawn) [Compound 123], the EC50 in series [1] is over 10 µM. The compound also came in with a CC50 at 72 h in series [2] of over 50 µM.

Regarding `CO[C@]1(CO)O[C@@H](n2ccc(=O)[nH]c2=O)[C@H](F)[C@@H]1O` [Compound 2b], in series [1], the EC50 is over 10 µM. This compound also gave a CC50 at 72 h in series [2] of over 50 µM.

With `CO[C@]1(COP(=O)(O)OP(=O)(O)OP(=O)(O)O)O[C@@H](n2ccc(=O)[nH]c2=O)[C@H](O)[C@@H]1N` [Compound 9e], in series [3], the IC50 was over 10 µM.

`CO[C@]1(COP(=O)(O)OP(=O)(O)OP(=O)(O)O)O[C@@H](n2cnc3c(=O)[nH]c(N)nc32)[C@@H](N)[C@@H]1O` [Compound 230]: in series [3], the IC50 lay within 1 to 10 µM.

`CC(C)O[C@]1(CO)O[C@@H](n2ccc(=O)[nH]c2=O)[C@H](F)[C@@H]1O` [Compound 7b]: in series [1], the EC50 was over 10 µM. In addition, in series [2], the CC50 at 72 h was over 50 µM.

Take `CO[C@]1(COP(=O)(O)OP(=O)(O)OP(=O)(O)O)O[C@@H](n2ccc(=O)[nH]c2=O)[C@H](N=[N+]=[N-])[C@@H]1O` [Compound 223]: in series [3], the IC50 is over 10 µM.

Regarding `CO[C@]1(COP(=O)(N[C@@H](C)C(=O)OC(C)C)OCCSC(=O)C(C)(C)C)O[C@@H](n2ccc(=O)[nH]c2=O)[C@H](O)[C@@H]1O` (stereo partly drawn) [Compound 14a], the concentration for a half-maximal effect (EC50) in series [1] is over 10 µM. Also, in series [2], the CC50 at 72 h was over 50 µM.

As to `CCO[C@]1(CO)O[C@@H](n2ccc(=O)[nH]c2=O)[C@H](O)[C@@H]1O` [Compound 6a], the EC50 in series [1] is over 10 µM. Further, the CC50 at 72 h in series [2] is over 50 µM.

As to `CO[C@]1(COP(=O)(O)OP(=O)(O)OP(=O)(O)O)O[C@@H](n2ccc(=O)[nH]c2=O)[C@H](N)[C@@H]1O` [Compound 233], in series [3], the IC50 is 1 to 10 µM.

Consider `CO[C@]1(CO)O[C@@H](n2ccc(=O)[nH]c2=O)[C@H](O)[C@@H]1F` [Compound 2c], for which, in series [1], the EC50 is over 10 µM. Moreover, in series [2], the CC50 at 72 h was over 50 µM.

Take `CO[C@]1(CO)O[C@@H](n2cnc3c(=O)[nH]c(N)nc32)[C@@H](N=[N+]=[N-])[C@@H]1O` [Compound 20]: the EC50 in series [1] is over 10 µM. In series [2], this compound yielded a CC50 at 72 h of over 50 µM.

On to `CO[C@]1(COP(=O)(N[C@@H](C)C(=O)OC(C)C)OCCSC(=O)C(C)(C)C)O[C@@H](n2ccc(N)nc2=O)[C@H](O)[C@@H]1O` (single isomer, unassigned) [Compound 16a], for which the EC50 in series [1] was over 10 µM. This compound also yielded a CC50 at 72 h in series [2] of over 50 µM.

For the compound `CO[C@]1(COP(=O)(O)OP(=O)(O)OP(=O)(O)O)O[C@@H](n2ccc(=O)[nH]c2=O)[C@H](O)[C@@H]1O` [Compound 9a], the IC50 in series [3] and in series [4] was 0.25 to 1 µM each time.

On to `CO[C@]1(COP(=O)(O)OP(=O)(O)OP(=O)(O)O)O[C@@H](n2cnc3c(=O)[nH]c(N)nc32)[C@@H](N=[N+]=[N-])[C@@H]1O` [Compound 220], for which, in series [3], the concentration for half-maximal inhibition (IC50) is 1 to 10 µM.

For the compound `CC(C)O[C@]1(CO)O[C@@H](n2ccc(=O)[nH]c2=O)[C@H](O)[C@@H]1O` [Compound 7a], the half-maximal effective concentration (EC50) in series [1] was over 10 µM. For the same compound, the CC50 at 72 h in series [2] was over 50 µM.

For the compound `CO[C@]1(COP(=O)(O)OP(=O)(O)O)O[C@@H](n2ccc(=O)[nH]c2=O)[C@H](O)[C@@H]1O` [Compound 17a], in series [3], the IC50 was over 10 µM.
